{"source": "paper PMC6271609", "about": "“Secondary Metabolites from Vietnamese Marine Invertebrates with Activity against Trypanosoma brucei and T. cruzi” (Molecules, 2014)", "key": {"[1]": {"test": "Cytotoxicity assay, resazurin, HEK293T", "assay_type": "cell-based, human", "settings": "human", "procedure": "(§1) HEK293T and HepG2 cells were cultured at 37 °C with 5% CO2 in Dulbecco’s modified eagle medium containing 10% FBS. Both cell types were plated individually in 384 well plates for testing the natural compounds at 3-fold dilution from 100 µM in 10-points concentration and incubated for 3 days. To determine viability, 10.0 µL of a 280 µM solution of resazurin sodium salt in water was added to the cells in the assay plate for at least 5 h (final concentration, 40.0 µM of resazurin) and resazurin reduction was measured with a Victor 3^TM fluorimeter (PerkinElmer) at 530 nmEx/590 nmEm.\n(§2) The acquired images from the high content intracellular T. cruzi screening were subjected to in-house software to quantify cell numbers, parasite numbers, and infection ratio as previously described. Each compound’s activity was normalized based on values of drug positive and negative control (120 nM of pentamidine for T. brucei and T. cruzi assays, 83.0 µM of chlorpromazine for cytotoxicity, and DMSO as 0% drug activity for negative control). Dose response curves were fitted by sigmoidal dose-response with variable slope, equation described as Y = Bottom + (Top − Bottom)/(1 + 10^(LogEC5 − X) − HillSlpe) using GraphPad Prism 6 Software (GraphPad Software, Suite 230 La Jolla, CA, USA)."}, "[2]": {"test": "Cytotoxicity assay, resazurin, HepG2", "assay_type": "cell-based, human", "settings": "human", "procedure": "as §1, §2"}, "[3]": {"system": "intracellular amastigotes of T. cruzi Y strain", "test": "Anti-trypanosomal activity on intracellular T. cruzi Y strain, high content image assay", "assay_type": "cell-based, Trypanosoma cruzi", "settings": "for activity against intracellular T. cruzi (in words): 50.0 µM; for decrease of parasite survival / reduction of parasites growth compared to the DMSO control: 50.0 μM, 48 h, U2OS host cells", "procedure": "(§3) The assay for activity against T. cruzi Y strain was performed as previously described. Briefly, T. cruzi parasites were maintained in form of Tissue Culture Trypomastigote (TCT) by circulation in LLC-MK2 cell line (CCL-7, ATTC, Manassas, VA, USA). Seven days after the infection, the supernatant containing TCT parasites was collected and used to reinfect new cultures of LLC-MK2. The U2OS human cell (HTB-96, ATCC), cultivated in DMEM-high glucose media supplemented with 10% heat inactivated FBS, was used for the in vitro assay preparation. The cells were infected with the TCT form of T. cruzi. A homogeneous mixture of parasites and cells in DMEM-low glucose media, supplemented with 2% heat inactivated FBS, and was seeded into 384-well plates at 50.0 µL/well. The test compounds (final concentration of 50.0 µM) were added in 10.0 µL of 6% DMSO (final concentration, 1% DMSO) and the cells were incubated for 48 h at 37 °C, 5% CO2. After the incubation, the cells and parasites were fixed with 4% PFA and stained with 5.0 µM Draq5. Fluorescent images were acquired from each assay well using an Operetta microscope (Perkin Elmer).\nas §2"}, "[4]": {"system": "HEK293T cells", "test": "Cytotoxicity assay, resazurin, HEK293T", "assay_type": "cell-based, human", "settings": "pure compounds up to 100 µM", "procedure": "as §1, §2"}, "[5]": {"system": "U2OS human cell", "test": "Host cell number in the T. cruzi high content image assay", "assay_type": "cell-based", "settings": "50.0 μM, 48 h, U2OS infected with T. cruzi", "procedure": "as §3\nThe acquired images from the high content intracellular T. cruzi screening were subjected to in-house software to quantify cell numbers, parasite numbers, and infection ratio as previously described. […]"}, "[6]": {"system": "T. brucei strain 427 bloodstream forms", "test": "Anti-trypanosomal activity on T. brucei, resazurin dose response", "assay_type": "cell-based, Trypanosoma brucei", "settings": "for SI (Selectivity index): relative to HEK293T and HepG2 cells vs T. brucei", "procedure": "T. brucei strain 427 bloodstream forms were cultivated at 37 °C with 5% CO2 in HMI-9 medium supplemented with 10% FBS. Cultivated parasites (2,500) were seeded in 384 well plates with the natural compounds and incubated for 3 days. After the incubation, the parasites were exposed to 120 µM of resazurin sodium salt (10.0 µL of a 720 µM solution in water) for 5 h. Then, the parasites were fixed with 4% PFA and the assay plates were read by Victor 3™ (PerkinElmer, Waltham, MA, USA) at 530 nmEx/590 nmEm. Pentamidine was used as a reference drug and DMSO 0.5% was used as a drug-negative control.\nas §2"}, "[7]": {"system": "HepG2 cells", "test": "Cytotoxicity assay, resazurin, HepG2", "assay_type": "cell-based, human", "settings": "pure compounds up to 100 µM", "procedure": "as §1, §2"}, "[8]": {"system": "T. brucei rhodesiense", "design": "method as in PMID 21157686", "settings": "cited from earlier work"}, "[9]": {"system": "Plasmodium falciparum", "design": "method as in PMID 21157686", "settings": "cited from earlier work"}, "[10]": {"settings": "HEK293T cells, HEK293T, 3 days, highest concentration 100 µM, read-out: Cytotoxicity CC50 Values HEK293T"}, "[11]": {"settings": "HepG2 cells, HepG2, 3 days, highest concentration 100 µM, read-out: Cytotoxicity CC50 Values HepG2"}, "[12]": {"settings": "Trypanosoma brucei, 72 h, bloodstream forms, 3 days incubation, resazurin, read-out: T. brucei EC50 Values"}}, "note": "“Also recorded” adds a separate entry of the source. Like-named read-outs stand apart in the source and are kept apart here."}
{"compound": "CN(C)CCCN1c2ccccc2Sc2ccc(Cl)cc21", "note": "[Chlorpromazine, reference compound]", "values": [{"measurement": "CC50 at 3 days", "setting": "[1]; [10]", "result": "19.9 ± 3.48", "unit": "µM"}, {"measurement": "CC50 at 3 days", "setting": "[2]; [11]", "result": "16.5 ± 0.45", "unit": "µM"}]}
{"compound": "C=C1CO[C@H]2/C=C(\\C)CC[C@@H]3O[C@]3(C)CC/C=C(\\C)CC[C@@]12O", "note": "[Compound 1, laevigatol B]", "values": [{"measurement": "activity against intracellular T. cruzi (in words)", "setting": "[3]", "result": "significant activity; also recorded: significant inhibitory effects; also recorded: active"}, {"measurement": "decrease of parasite survival / reduction of parasites growth compared to the DMSO control", "setting": "[3]", "result": 84.8, "unit": "%"}, {"measurement": "cytotoxicity on HEK293T (in words)", "setting": "[4]", "result": "did not display cytotoxicity"}, {"measurement": "CC50 at 3 days", "setting": "[1]; [10]", "result": "> 100", "unit": "µM"}, {"measurement": "reduction of the host cells", "setting": "[5]", "result": 33, "unit": "%"}, {"measurement": "EC50", "setting": "[6]; [12]", "result": "5.34 ± 0.47", "unit": "µM"}, {"measurement": "EC50", "setting": "[6]; Trypanosoma brucei, bloodstream forms, resazurin, read-out: T. brucei EC50", "result": "1.69 ± 0.12", "unit": "µg/mL"}, {"measurement": "SI (Selectivity index)", "setting": "[6]", "result": ">18.7"}, {"measurement": "cytotoxicity on HepG2 (in words)", "setting": "[7]", "result": "did not display cytotoxicity"}, {"measurement": "CC50 at 3 days", "setting": "[2]; [11]", "result": "> 100", "unit": "µM"}]}
{"compound": "CC(C)[C@@H](C)CC[C@@H](C)[C@H]1CC[C@H]2[C@@H]3CCC4=CC(=O)CC[C@]4(C)[C@H]3CC[C@]12C", "note": "[Compound 2, (24S)-ergost-4-ene-3-one]", "values": [{"measurement": "CC50 at 3 days", "setting": "[1]; [10]", "result": "> 100", "unit": "µM"}, {"measurement": "EC50", "setting": "[6]; [12]", "result": "5.47 ± 0.27", "unit": "µM"}, {"measurement": "SI (Selectivity index)", "setting": "[6]", "result": ">18.3"}, {"measurement": "CC50 at 3 days", "setting": "[2]; [11]", "result": "> 100", "unit": "µM"}]}
{"compound": "CC(C)CCC[C@@H](C)[C@H]1CC[C@@H]2[C@]1(C)CC[C@@H]1[C@@]3(C)CC[C@H](O)C[C@@H]3[C@@H](C=O)[C@]12O", "note": "[Compound 3, astropectenol A]", "values": [{"measurement": "CC50 at 3 days", "setting": "[1]; [10]", "result": "> 100", "unit": "µM"}, {"measurement": "EC50", "setting": "[6]; [12]", "result": "1.17 ± 0.14", "unit": "µM"}, {"measurement": "EC50", "setting": "[6]; bloodstream forms, 3 days incubation, resazurin, read-out: T. brucei EC50 Values", "result": "1.57 ± 0.14", "unit": "µM"}, {"measurement": "SI (Selectivity index)", "setting": "[6]", "result": ">63.7"}, {"measurement": "CC50 at 3 days", "setting": "[2]; [11]", "result": "> 100", "unit": "µM"}]}
{"compound": "CC(C)CCC[C@@H](C)[C@H]1CC[C@H]2C3=C(CC[C@]12C)[C@@]1(C)CC[C@H](O)C[C@]1(O)[C@H](O)[C@H]3O", "note": "[Compound 4, cholest-8-ene-3β,5α,6β,7α-tetraol]", "values": [{"measurement": "CC50 at 3 days", "setting": "[1]", "result": "> 100", "unit": "µM"}, {"measurement": "EC50", "setting": "[6]; [12]", "result": "14.6 ± 1.36", "unit": "µM"}, {"measurement": "SI (Selectivity index)", "setting": "[6]", "result": ">6.8"}, {"measurement": "CC50 at 3 days", "setting": "[2]", "result": "> 100", "unit": "µM"}]}
{"compound": "CC(C)CCC[C@@H](C)[C@H]1CCC2=C3[C@H](O)C[C@H]4C[C@@H](O)CC[C@]4(C)[C@H]3CC[C@@]21C", "note": "[Compound 5, 5α-cholest-8(14)-ene-3β,7α-diol]", "values": [{"measurement": "activity against intracellular T. cruzi (in words)", "setting": "[3]", "result": "significant activity; also recorded: significant inhibitory effects; also recorded: active"}, {"measurement": "decrease of parasite survival / reduction of parasites growth compared to the DMSO control", "setting": "[3]", "result": 97.1, "unit": "%"}, {"measurement": "cytotoxicity on HEK293T (in words)", "setting": "[4]", "result": "did not show any cytotoxicity"}, {"measurement": "CC50 at 3 days", "setting": "[1]; HEK293T, 3 days, highest concentration 100 µM, read-out: Cytotoxicity CC50 Values HEK293T", "result": "> 100", "unit": "µM"}, {"measurement": "reduction of the host cells", "setting": "[5]", "result": "not significantly reduced"}, {"measurement": "EC50", "setting": "[6]; Trypanosoma brucei, 72 h, read-out: T. brucei EC50 Values", "result": "> 30", "unit": "µM"}, {"measurement": "activity against T. brucei (in words)", "setting": "[6]; bloodstream forms", "result": "inactive"}, {"measurement": "cytotoxicity on HepG2 (in words)", "setting": "[7]", "result": "did not show any cytotoxicity"}, {"measurement": "CC50 at 3 days", "setting": "[2]; HepG2, 3 days, highest concentration 100 µM, read-out: Cytotoxicity CC50 Values HepG2", "result": "> 100", "unit": "µM"}]}
{"compound": "N=C(N)c1ccc(OCCCCCOc2ccc(C(=N)N)cc2)cc1", "note": "[Pentamidine, reference compound]", "values": [{"measurement": "CC50 at 3 days", "setting": "[1]; [10]", "result": "< 0.4", "unit": "µM"}, {"measurement": "EC50", "setting": "[6]; [12]", "result": "0.015 ± 0.003", "unit": "µM"}, {"measurement": "SI (Selectivity index)", "setting": "[6]", "result": "<26.7"}, {"measurement": "SI (Selectivity index)", "setting": "[6]; listed as pentamidine", "result": 26.7}, {"measurement": "CC50 at 3 days", "setting": "[2]; [11]", "result": "< 0.4", "unit": "µM"}]}
{"compound": "C/C1=C\\CC/C(C)=C/C[C@](O)(C(C)C)CC/C(C)=C/CC1", "note": "[serratol]", "values": [{"measurement": "activity against T. brucei rhodesiense (in words)", "setting": "[8]", "result": "active"}, {"measurement": "activity against Plasmodium falciparum (in words)", "setting": "[9]", "result": "active"}]}
